Data reported in ChEMBL document CHEMBL1201862, “PubChem BioAssay data set” (2004).
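96-well plates; 48 h exposure; 5 concentrations. Endpoints by linear interpolation between flanking doses. Not reached: highest tested concentration assigned. GI50 = concentration required for 50% inhibition of growth.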 Active and inactive are the calls of the source. No stated cut-off is given here; in the data, active = GI50 up to about 1.1 µM and inactive = higher.

Tests used:
Assay in all cases: DTP human tumour cell line panel, 48 h
[1] = tested on: NCI-H226
[2] = tested on: PC-3
[3] = tested on: SK-MEL-5
[4] = tested on: SF-268
[5] = tested on: SK-MEL-28
[6] = tested on: K562
[7] = tested on: Malme-3M
[8] = tested on: RXF 393
[9] = tested on: SK-MEL-2
[10] = tested on: HOP-62
[11] = tested on: M14
[12] = tested on: IGROV-1
[13] = tested on: EKVX
[14] = tested on: NCI/ADR-RES
[15] = tested on: Hs-578T
[16] = tested on: SR
[17] = tested on: MCF7
[18] = tested on: KM12
[19] = tested on: HL-60
[20] = tested on: HOP-92

Measured: GI50

Cc1cc2nc3n(c2cc1C)C(c1c(F)cccc1F)SC3 (centres undefined)
inactive: [1] 10.5 µM | [2] 17.7 µM | [3] 11 µM | [4] 27.6 µM | [5] 19.1 µM | [6] 17.6 µM | [7] 20.8 µM | [8] 20.8 µM | [9] 18.5 µM | [10] 23.9 µM | [11] 19.8 µM | [12] > 10 µM | [13] 34.8 µM | [14] 16.8 µM | [15] 15.4 µM | [16] 12.7 µM | [17] 17.5 µM | [18] > 10 µM

O=C1SC(c2ccc(Cl)cc2)(c2ccc(Cl)cc2)c2ccccc21
inactive: [1] 39.5 µM | [2] 40.4 µM | [3] 52.8 µM | [4] > 100 µM | [5] > 100 µM | [6] 44.5 µM | [19] 28.2 µM | [7] > 100 µM | [8] 39.4 µM | [9] 22.6 µM | [10] > 100 µM | [11] 87.9 µM | [12] > 100 µM | [13] 86.7 µM | [14] > 100 µM | [15] 81.8 µM | [17] 48.8 µM | [20] 81.5 µM | [18] 66.7 µM

Cc1ccccc1NC(=O)C(=O)CC(=O)c1sc(Nc2ccccc2[N+](=O)[O-])nc1C
inactive: [1] 34.8 µM | [2] 28.1 µM | [3] 27.8 µM | [4] 38.5 µM | [5] 25.7 µM | [6] 49.2 µM | [19] 60.4 µM | [8] 26.4 µM | [9] 56.6 µM | [10] 25.2 µM | [11] 39.7 µM | [12] 41.4 µM | [13] 34 µM | [14] 41.2 µM | [15] 40.8 µM | [17] 23.9 µM | [20] 29.3 µM | [18] 47.5 µM

O=C1NC(=S)NC(=O)C1=C/C=C/c1ccc([N+](=O)[O-])cc1
inactive: [1] 19.1 µM | [2] 16.9 µM | [3] 19.3 µM | [4] 15.2 µM | [5] 3.03 µM | [6] 3.72 µM | [19] 3.71 µM | [7] 9.66 µM | [8] 13.1 µM | [9] 16.4 µM | [10] 18.7 µM | [11] 15 µM | [12] 12.2 µM | [13] 17.9 µM | [14] 13.1 µM | [15] 10.7 µM | [17] 14 µM | [20] 14.4 µM | [18] 38 µM

CSc1nc2c(N)ncnc2n1C
inactive: [1] > 100 µM | [2] > 100 µM | [3] > 100 µM | [4] > 100 µM | [5] > 100 µM | [6] > 100 µM | [7] > 100 µM | [8] > 100 µM | [9] > 100 µM | [10] > 100 µM | [11] > 100 µM | [12] > 100 µM | [13] > 100 µM | [14] > 100 µM | [15] > 100 µM | [17] > 100 µM | [18] > 100 µM

Oc1ccc(/C=N/CC2CCCN3CCCCC23)cc1 (centres undefined)
inactive: [1] 21.6 µM | [2] 26.4 µM | [3] 20.5 µM | [4] 24.5 µM | [5] 22.5 µM | [6] 43.3 µM | [7] 24.7 µM | [8] 20 µM | [9] 19.5 µM | [10] 26.7 µM | [11] 26.5 µM | [12] 24.2 µM | [13] 27.5 µM | [14] 46.8 µM | [15] 33.1 µM | [17] 18.3 µM | [20] 24.2 µM | [18] 16.4 µM

CC(N)C(C)Cc1ccccc1 (centres undefined)
inactive: [1] > 100 µM | [2] > 100 µM | [3] > 100 µM | [4] > 100 µM | [5] > 100 µM | [6] > 100 µM | [19] > 100 µM | [7] > 100 µM | [8] > 100 µM | [10] > 100 µM | [11] > 100 µM | [12] > 100 µM | [13] > 100 µM | [14] > 100 µM | [15] 77.1 µM | [17] > 100 µM | [20] 64.4 µM | [18] > 100 µM

COc1ccc(/C=C2\CCC(C)/C(=C\c3ccc(OC)c(OC)c3)C2=O)cc1OC (centres undefined)
inactive: [1] 4.65 µM | [2] 3.39 µM | [3] 3.61 µM | [4] 6.89 µM | [5] 10.7 µM | [6] 3.36 µM | [19] 1.73 µM | [7] 4.58 µM | [8] 5.06 µM | [9] 3.82 µM | [11] 5.38 µM | [12] 2.88 µM | [13] 2.13 µM | [14] 3.5 µM | [15] 12.6 µM | [17] 4.85 µM | [18] 2.55 µM
